# Measurements as given in publication PMC6695839, “Interspecies Variation in NCMN-O-Demethylation in Liver Microsomes from Various Species” (Molecules, 2019).
# Where “and” joins values, the source holds several entries; their conditions need not be identical. Equal values may be shown once.
# Tests used:
# Assay type in all cases: in vitro ADME
# [1] = test system: minipig liver microsomes (PLM); assay: Kinetic analysis of NCMN-O-demethylation in minipig liver microsomes; conditions: biphasic kinetics, substrate 1-150 µM
# Experimental: (§1) The formation rates of NCHN were within the linear range of the protein concentration and incubation time. NCMN (1, 2.5, 5, 7.5, 10, 25, 50, 75, 100 and 150 µM) was incubated with HLM, MLM, RLM, DLM, PLM, CyLM (0.25mg protein/mL) as well as rat CYP1A2 (100 nM) for 30min. The apparent Km and Vmax values were determined by fitting the substrate concentrations versus the metabolite reaction velocities to the Michaelis-Menten equation (Equation (1)) and the Biphasic Kinetics equation (Equation (2)), and the results were graphically represented by Eadie-Hofstee plots. (1) v=Vmax[S]/Km+[S] (2) v=Vmax 1[S]/Kmax 1+[S]+Vmax 2[S]/Kmax 2+[S] where v is the rate of the reaction, Vmax is the maximum velocity estimate, Km is the substrate affinity constant, [S] is the substrate concentration.
# (§2) The UFLC system consisted of a SIL-20ACHT auto sampler, a DGU-20A3 in-line degasser, a CBM-20A communications bus module, a CTO-20AC column oven, two LC-20AD pumps and an SPD-M20A photodiode array detector were used for analyzing the samples. The separation of NCMN and its metabolites was achieved on a Shim-pack XR-ODS (75 mm × 2.0 mm, 2.2 µm, Shimadzu, Kyoto, Japan) analytical column with an ODS guard column (5 mm × 2.0 mm, 2.2 µm, Shimadzu, Kyoto, Japan). The O-demethylation was quantified at the detector wavelength of 243 nm. […] The column oven was kept at 40 °C.
# [2] = test system: mouse liver microsomes (MLM); assay: Kinetic analysis of NCMN-O-demethylation in mouse liver microsomes; conditions: Michaelis-Menten, substrate 1-150 µM
# Experimental: as §1, §2
# [3] = as above; conditions: mouse, mouse liver microsomes, pH 7.4; MLM; Michaelis-Menten; substrate 1-150 µM; read-out: Km1 (Km) of NCMN-O-demethylation
# Experimental: as §1, §2
# [4] = Kinetic analysis of NCMN-O-demethylation in beagle dog liver microsomes; conditions: beagle, dog, beagle dog liver microsomes, pH 7.4; DLM; Michaelis-Menten; substrate 1-150 µM; read-out: Km1 (Km) of NCMN-O-demethylation
# Experimental: as §1, §2
# [5] = test system: beagle dog liver microsomes (DLM); assay: as above; conditions: Michaelis-Menten, substrate 1-150 µM
# Experimental: as §1, §2
# [6] = test system: rat liver microsomes (RLM); assay: Kinetic analysis of NCMN-O-demethylation in rat liver microsomes; conditions: biphasic kinetics, substrate 1-150 µM
# Experimental: as §1, §2
# [7] = test system: cynomolgus monkey liver microsomes (CyLM); assay: Kinetic analysis of NCMN-O-demethylation in cynomolgus monkey liver microsomes; conditions: biphasic kinetics, substrate 1-150 µM
# Experimental: as §1, §2
# [8] = Kinetic analysis of NCMN-O-demethylation in human liver microsomes; conditions: human, human liver microsomes, pH 7.4; HLM; Michaelis-Menten; substrate 1-150 µM; read-out: Km1 (Km) of NCMN-O-demethylation
# Experimental: as §1, §2
# [9] = test system: human liver microsomes (HLM); assay: as above; conditions: Michaelis-Menten, substrate 1-150 µM
# Experimental: as §1, §2
smiles,measurement,setting,value
"COc1ccc2c3c(cccc13)C(=O)N(CCCC(=O)O)C2=O [NCMN, N-(3-carboxypropyl)-4-methoxy-1,8-naphthalimide]",Km1 of NCMN-O-demethylation,[1],242.80 ± 111.80 µM
same,Km2 of NCMN-O-demethylation,[1],5.70 ± 3.27 µM
same,Vm1 of NCMN-O-demethylation,[1],28.22 ± 5.82 nmol/min/mg
same,Vm2 of NCMN-O-demethylation,[1],3.35 ± 1.20 nmol/min/mg
same,Vm1 (Vmax) of NCMN-O-demethylation,[2],33.17 ± 0.42 nmol/min/mg
same,Km at 30 min,[3],22.8 ± 1.22 µM
same,Km at 30 min,[4],61.8 ± 3.52 µM
same,Vm1 (Vmax) of NCMN-O-demethylation,[5],13.53 ± 0.34 nmol/min/mg
same,Km1 of NCMN-O-demethylation,[6],1134.00 µM and 1134.00 ± 482.10 µM
same,Km2 of NCMN-O-demethylation,[6],5.66 ± 0.80 µM
same,Vm1 of NCMN-O-demethylation,[6],78.42 ± 31.17 nmol/min/mg
same,Vm2 of NCMN-O-demethylation,[6],5.71 ± 0.45 nmol/min/mg
same,Km1 of NCMN-O-demethylation,[7],198.70 ± 39.66 µM
same,Km2 of NCMN-O-demethylation,[7],0.18 ± 0.09 µM
same,Vm1 of NCMN-O-demethylation,[7],8.43 ± 0.91 nmol/min/mg
same,Vm2 of NCMN-O-demethylation,[7],0.28 ± 0.08 nmol/min/mg
same,Km at 30 min,[8],9.54 ± 0.24 µM
same,Vm1 (Vmax) of NCMN-O-demethylation,[9],25.61 ± 0.15 nmol/min/mg
